Measurements reported in ChEMBL document CHEMBL4477252, “Optimization of microtubule affinity regulating kinase (MARK) inhibitors with improved physical properties” (Bioorg Med Chem Lett, 2016).

What was measured:
[1] = target: Tyrosine-protein kinase BTK (Homo sapiens, UniProt Q06187); experiment: Inhibition of full-length recombinant human His-tagged BTK expressed in baculovirus expression system by Z'-LYTE assay
[2] = target: T1, Inhibitor of nuclear factor kappa-B kinase subunit epsilon (Homo sapiens, UniProt Q14164); experiment: Inhibition of full-length recombinant human GST-tagged IKK-epsilon expressed in baculovirus expression system by Z'-LYTE assay
T1 sequence (Q14164 whole entry): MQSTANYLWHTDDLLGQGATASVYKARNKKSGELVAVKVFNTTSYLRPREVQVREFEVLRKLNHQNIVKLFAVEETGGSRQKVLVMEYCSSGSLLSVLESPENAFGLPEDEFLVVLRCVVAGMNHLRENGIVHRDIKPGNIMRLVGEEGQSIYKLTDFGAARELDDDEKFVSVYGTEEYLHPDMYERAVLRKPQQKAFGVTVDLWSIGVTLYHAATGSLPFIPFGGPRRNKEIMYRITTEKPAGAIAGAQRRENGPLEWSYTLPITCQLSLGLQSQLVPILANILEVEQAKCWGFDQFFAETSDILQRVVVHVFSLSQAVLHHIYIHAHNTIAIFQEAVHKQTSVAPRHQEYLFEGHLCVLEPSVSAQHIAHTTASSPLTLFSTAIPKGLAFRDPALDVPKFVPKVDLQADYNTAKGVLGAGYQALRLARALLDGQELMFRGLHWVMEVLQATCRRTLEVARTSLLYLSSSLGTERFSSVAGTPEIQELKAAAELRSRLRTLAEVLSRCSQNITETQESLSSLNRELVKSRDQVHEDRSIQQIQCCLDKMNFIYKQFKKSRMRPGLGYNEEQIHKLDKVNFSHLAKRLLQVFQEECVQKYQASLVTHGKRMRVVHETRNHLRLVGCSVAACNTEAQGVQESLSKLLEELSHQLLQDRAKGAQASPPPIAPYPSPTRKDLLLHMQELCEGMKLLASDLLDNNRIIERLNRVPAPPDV

[3] = target: Hepatocyte growth factor receptor (Homo sapiens, UniProt P08581); experiment: Inhibition of recombinant human N-terminal His-tagged cytoplasmic MET (956 to 1390 residues) expressed in baculovirus expression system by Z'-LYTE assay
Hepatocyte growth factor receptor, sequence (P08581 whole entry, the tested form may be a part): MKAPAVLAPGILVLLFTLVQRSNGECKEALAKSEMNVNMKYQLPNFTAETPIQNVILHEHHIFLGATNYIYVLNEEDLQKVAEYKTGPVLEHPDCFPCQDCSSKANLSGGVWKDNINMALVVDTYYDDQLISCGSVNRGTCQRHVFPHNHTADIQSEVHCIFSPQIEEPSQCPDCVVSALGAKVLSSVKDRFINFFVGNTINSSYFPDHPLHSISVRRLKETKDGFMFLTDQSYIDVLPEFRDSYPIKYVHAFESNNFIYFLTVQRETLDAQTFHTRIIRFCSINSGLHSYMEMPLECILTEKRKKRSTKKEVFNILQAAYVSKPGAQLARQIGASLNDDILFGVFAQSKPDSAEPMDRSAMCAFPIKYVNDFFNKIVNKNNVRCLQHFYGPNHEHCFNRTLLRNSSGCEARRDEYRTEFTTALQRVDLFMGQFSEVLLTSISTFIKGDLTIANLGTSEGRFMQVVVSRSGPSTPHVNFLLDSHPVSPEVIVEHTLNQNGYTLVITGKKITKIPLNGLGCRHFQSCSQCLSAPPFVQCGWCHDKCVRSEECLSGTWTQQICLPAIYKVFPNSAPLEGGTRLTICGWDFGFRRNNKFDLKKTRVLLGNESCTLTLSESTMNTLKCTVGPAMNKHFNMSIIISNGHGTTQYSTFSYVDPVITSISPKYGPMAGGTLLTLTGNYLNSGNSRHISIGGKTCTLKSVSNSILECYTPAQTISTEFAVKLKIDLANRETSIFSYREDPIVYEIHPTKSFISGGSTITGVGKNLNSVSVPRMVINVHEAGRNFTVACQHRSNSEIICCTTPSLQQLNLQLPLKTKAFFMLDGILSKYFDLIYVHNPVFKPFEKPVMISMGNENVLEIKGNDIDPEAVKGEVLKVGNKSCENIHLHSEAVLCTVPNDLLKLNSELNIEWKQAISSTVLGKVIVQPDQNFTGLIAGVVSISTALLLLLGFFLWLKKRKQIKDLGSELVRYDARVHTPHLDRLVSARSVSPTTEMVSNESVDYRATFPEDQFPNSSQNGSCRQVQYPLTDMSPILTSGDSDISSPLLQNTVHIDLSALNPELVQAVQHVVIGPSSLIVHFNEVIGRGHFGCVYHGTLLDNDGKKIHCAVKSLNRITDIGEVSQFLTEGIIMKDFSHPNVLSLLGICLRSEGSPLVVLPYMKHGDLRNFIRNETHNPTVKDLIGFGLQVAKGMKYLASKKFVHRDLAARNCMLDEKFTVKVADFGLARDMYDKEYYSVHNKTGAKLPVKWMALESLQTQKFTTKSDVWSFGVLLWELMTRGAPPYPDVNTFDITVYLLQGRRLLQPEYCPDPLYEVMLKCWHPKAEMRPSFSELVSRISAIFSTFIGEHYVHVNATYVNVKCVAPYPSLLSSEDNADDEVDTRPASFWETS

[4] = target: High affinity nerve growth factor receptor (Homo sapiens, UniProt P04629); experiment: Inhibition of recombinant human His-tagged cytoplasmic NTRK1 expressed in baculovirus expression system by Z'-LYTE assay
High affinity nerve growth factor receptor, sequence (P04629 whole entry): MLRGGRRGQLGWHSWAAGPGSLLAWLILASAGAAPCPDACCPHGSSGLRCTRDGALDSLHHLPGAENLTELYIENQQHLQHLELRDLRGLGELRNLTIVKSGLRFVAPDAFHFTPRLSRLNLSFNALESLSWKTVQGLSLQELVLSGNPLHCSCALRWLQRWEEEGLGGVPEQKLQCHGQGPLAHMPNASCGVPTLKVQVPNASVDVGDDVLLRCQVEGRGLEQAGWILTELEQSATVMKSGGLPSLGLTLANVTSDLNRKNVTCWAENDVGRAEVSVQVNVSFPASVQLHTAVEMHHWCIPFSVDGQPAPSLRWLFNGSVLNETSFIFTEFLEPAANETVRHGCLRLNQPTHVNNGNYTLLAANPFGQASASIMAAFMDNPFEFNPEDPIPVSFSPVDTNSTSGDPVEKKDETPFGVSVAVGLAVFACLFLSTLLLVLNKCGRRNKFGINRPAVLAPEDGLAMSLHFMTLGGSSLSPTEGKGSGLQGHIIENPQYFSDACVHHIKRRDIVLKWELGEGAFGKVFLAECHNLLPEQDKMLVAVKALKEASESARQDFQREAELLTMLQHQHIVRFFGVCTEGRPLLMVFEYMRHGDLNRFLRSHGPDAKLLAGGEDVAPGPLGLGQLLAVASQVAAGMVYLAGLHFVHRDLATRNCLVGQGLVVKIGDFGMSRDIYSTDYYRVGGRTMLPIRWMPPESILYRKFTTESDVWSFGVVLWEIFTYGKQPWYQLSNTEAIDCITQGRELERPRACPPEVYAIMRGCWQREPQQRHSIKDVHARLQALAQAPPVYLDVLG

[5] = target: NT-3 growth factor receptor (Homo sapiens, UniProt Q16288); experiment: Inhibition of recombinant human His-tagged cytoplasmic NTRK3 expressed in baculovirus expression system by Z'-LYTE assay
NT-3 growth factor receptor, sequence (Q16288 whole entry): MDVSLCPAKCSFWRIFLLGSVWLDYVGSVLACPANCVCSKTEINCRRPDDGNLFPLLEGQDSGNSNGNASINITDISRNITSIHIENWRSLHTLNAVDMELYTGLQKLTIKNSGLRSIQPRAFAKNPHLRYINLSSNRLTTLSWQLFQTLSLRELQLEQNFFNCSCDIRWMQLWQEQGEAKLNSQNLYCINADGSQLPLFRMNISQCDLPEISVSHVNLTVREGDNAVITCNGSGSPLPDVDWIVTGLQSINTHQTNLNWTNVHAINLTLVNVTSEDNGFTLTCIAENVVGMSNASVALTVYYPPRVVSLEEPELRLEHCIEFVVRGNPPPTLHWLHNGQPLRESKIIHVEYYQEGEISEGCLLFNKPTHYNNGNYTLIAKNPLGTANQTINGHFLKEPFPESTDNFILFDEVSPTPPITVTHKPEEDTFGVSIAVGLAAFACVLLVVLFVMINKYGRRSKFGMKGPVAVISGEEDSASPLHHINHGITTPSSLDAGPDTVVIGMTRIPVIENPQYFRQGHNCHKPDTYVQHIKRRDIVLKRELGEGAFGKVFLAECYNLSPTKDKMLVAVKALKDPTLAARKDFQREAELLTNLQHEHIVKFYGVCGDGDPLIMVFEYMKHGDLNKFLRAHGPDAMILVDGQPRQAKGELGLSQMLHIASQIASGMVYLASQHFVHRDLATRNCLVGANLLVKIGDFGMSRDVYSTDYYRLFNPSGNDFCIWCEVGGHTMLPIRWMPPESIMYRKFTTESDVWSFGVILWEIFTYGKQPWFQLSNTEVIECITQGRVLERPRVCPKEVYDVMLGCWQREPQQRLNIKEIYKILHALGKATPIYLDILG

[6] = target: T2, NUAK family SNF1-like kinase 1 (Homo sapiens, UniProt O60285); experiment: Inhibition of full-length recombinant human His-tagged NUAK1 expressed in baculovirus expression system by Adapta assay
T2 sequence (O60285 whole entry): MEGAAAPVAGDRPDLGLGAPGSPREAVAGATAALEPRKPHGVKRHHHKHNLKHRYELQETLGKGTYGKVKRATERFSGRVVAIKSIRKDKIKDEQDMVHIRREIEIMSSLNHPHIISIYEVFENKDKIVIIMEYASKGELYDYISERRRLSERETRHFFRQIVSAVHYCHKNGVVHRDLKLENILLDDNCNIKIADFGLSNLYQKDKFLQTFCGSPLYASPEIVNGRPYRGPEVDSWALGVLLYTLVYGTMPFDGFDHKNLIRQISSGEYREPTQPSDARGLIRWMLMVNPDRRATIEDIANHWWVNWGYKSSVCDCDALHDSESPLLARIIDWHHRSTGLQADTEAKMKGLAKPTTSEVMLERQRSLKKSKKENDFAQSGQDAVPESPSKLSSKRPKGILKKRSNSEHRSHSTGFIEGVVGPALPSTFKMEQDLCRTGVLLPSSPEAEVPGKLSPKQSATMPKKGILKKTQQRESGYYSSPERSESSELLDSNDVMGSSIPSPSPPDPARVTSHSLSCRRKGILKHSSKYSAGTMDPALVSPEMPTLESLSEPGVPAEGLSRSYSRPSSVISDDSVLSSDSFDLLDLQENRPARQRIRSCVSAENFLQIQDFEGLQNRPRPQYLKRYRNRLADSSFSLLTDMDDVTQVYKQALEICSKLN

[7] = target: T3, Serine/threonine-protein kinase Sgk1 (Homo sapiens, UniProt O00141); experiment: Inhibition of recombinant human GST-tagged SGK catalytic domain expressed in baculovirus expression system by Z'-LYTE assay
T3 sequence (O00141 whole entry): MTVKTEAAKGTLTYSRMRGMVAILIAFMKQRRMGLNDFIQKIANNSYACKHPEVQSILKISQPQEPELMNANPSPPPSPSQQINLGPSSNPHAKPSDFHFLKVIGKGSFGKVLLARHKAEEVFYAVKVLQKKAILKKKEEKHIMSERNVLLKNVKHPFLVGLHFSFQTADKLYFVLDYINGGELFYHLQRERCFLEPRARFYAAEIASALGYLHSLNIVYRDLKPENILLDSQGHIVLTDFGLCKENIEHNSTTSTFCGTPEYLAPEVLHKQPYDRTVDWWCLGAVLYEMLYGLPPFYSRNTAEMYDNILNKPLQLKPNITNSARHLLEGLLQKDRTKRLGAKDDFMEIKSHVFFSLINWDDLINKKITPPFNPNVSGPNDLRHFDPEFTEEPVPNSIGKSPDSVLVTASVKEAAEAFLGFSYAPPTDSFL

[8] = target: Tyrosine-protein kinase SYK (Homo sapiens, UniProt P43405); experiment: Inhibition of full-length recombinant human N-terminal GST-tagged cytoplasmic SYK expressed in baculovirus expression system by Z'-LYTE assay

Tyrosine-protein kinase BTK, sequence (Q06187 whole entry): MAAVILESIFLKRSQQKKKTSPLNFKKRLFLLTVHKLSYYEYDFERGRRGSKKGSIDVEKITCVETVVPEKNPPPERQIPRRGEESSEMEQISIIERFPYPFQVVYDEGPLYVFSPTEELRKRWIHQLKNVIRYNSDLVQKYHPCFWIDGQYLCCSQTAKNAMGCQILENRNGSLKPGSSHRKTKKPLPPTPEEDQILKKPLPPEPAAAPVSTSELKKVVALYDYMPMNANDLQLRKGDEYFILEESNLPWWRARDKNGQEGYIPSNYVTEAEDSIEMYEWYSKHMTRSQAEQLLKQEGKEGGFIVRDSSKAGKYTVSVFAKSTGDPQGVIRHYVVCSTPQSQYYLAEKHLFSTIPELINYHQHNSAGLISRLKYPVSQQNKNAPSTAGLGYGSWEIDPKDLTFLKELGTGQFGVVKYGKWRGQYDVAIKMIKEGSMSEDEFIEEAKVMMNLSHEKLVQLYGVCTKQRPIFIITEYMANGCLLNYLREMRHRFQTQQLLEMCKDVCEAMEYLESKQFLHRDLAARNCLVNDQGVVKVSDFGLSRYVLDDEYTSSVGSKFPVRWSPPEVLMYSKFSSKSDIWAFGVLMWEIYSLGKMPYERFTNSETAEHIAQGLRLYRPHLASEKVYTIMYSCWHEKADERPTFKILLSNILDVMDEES

| Compound | IC50 [1] [µM] | IC50 [2] [µM] | IC50 [3] [µM] | IC50 [4] [µM] | IC50 [5] [µM] | IC50 [6] [µM] | IC50 [7] [µM] | IC50 [8] [µM] |
| --- | --- | --- | --- | --- | --- | --- | --- | --- |
| O=C(NCC(F)(F)F)c1cc(-c2cnn3cc(-c4ccc(OCCN5CCCCC5)cc4)cnc23)cs1 | 0.29 | < 0.01 | 1.4 | 0.31 | 0.38 | 0.015 | 0.027 | 0.44 |
| Cn1cc(-c2cnc3c(-c4csc(C(=O)NCC(F)(F)F)c4)cnn3c2)cn1 | 0.36 | < 0.01 | 4 | 0.54 | 0.12 | 0.019 | 0.063 | 0.75 |
| Cn1cc(-c2cnc3c(-c4csc(C(=O)N[C@@H]5CCCC[C@@H]5N)c4)cnn3c2)cn1 (racemic) | < 0.001 | 0.0071 | 0.41 | 0.05 | 0.013 | 0.0042 | 0.2 | 0.042 |
| Cc1sc(C(=O)N[C@@H]2[C@H](N)CCCC2(F)F)cc1-c1cnn2cc(Cl)cnc12 | 13 | 0.048 | 8.5 | 2.1 | 1.4 | 0.2 | 0.81 | 12 |
